In article PMC10033409, “Autoregulation of GPCR signalling through the third intracellular loop” (Nature, 2023):
Where “and” joins values, the source holds several entries; their conditions need not be identical. Equal entries are not always repeated. Structures can show the parent of a compound that is named as a salt. Where two headings read alike, the source gives them in different places.

How the values were obtained:
[1] = system: β2AR; settings: for competition binding curve vs isoproterenol (Extended Data Figure 3L): replicates 1-3 and Average; for competition binding curve vs isoproterenol (Extended Data Figure 3L), Fit: fitted curve
Procedure: Reactions were equilibrated, washed, and measured following the same procedure listed above for the radioligand antagonist-binding assay. […] Weighted averages of these IC50 values were used for comparison purposes and inhibition constant (Ki) calculations. […] Binding assays were performed in technical duplicates. Three biological replicates were collected with different membrane preparations for each replicate.

[2] = system: PTH1R; experiment: cAMP accumulation, PTH1R; assay type: cell-based, human; settings: PTH1R B2AR ICL3
Procedure: (§1) One millilitre of medium was removed from each well containing transfected cells. The remaining volume was used to gently shear and resuspend the cells by pipetting. The cell mixture was centrifuged (3 min, 300g) and media was removed using a vacuum manifold. […] The cells were washed once by repeating this procedure.
(§2) For all other second messenger assays, expression level and cell density of each condition was estimated through fluorescence. Fluorescence spectra for mCerulean (Horiba Fluoromax 4, excitation 430 nm, emission scan 450–600 nm, bandpass 4 nm) and mCitrine (Horiba Fluoromax 4, excitation 490 nm, emission scan 500–600 nm, bandpass 4 nm) were acquired for each condition. Cells were resuspended at 350,000 ± 30,000 fluorescence counts at a wavelength representing optical density of the sample (excitation 430 nm/emission 450 nm), corresponding with 2 × 10^6 ± 5 × 10^5 cells per m^l. This was confirmed by counting the cells on a haemocytometer (Countess II).
(§3) Resuspended cells were added 1:1 with a 2× concentration of ligand (10 µl final) into an opaque 384-well flat bottom plate (Greiner Bio-One). […] For dose–response curves, a saturating concentration of forskolin (10 µM) was included as a control to measure cAMP stimulation independent of the transfected receptor. […] For all other experiments, plates were incubated at room temperature for 10 min. […] Reactions were quenched and processed for the cAMP-Glo Assay (Promega) following the manufacturer’s instructions. Luminescence was measured on a Tecan Spark plate reader (500 ms integration, one measurement per well).

[3] = target: T1, PTH1R (Homo sapiens, UniProt Q03431); experiment: cAMP accumulation, PTH1R; assay type: cell-based; settings: PTH1R Wild-Type
T1 construct: expressed in transfected cells; host or cells: HEK 293T
T1 sequence (Q03431 27-593): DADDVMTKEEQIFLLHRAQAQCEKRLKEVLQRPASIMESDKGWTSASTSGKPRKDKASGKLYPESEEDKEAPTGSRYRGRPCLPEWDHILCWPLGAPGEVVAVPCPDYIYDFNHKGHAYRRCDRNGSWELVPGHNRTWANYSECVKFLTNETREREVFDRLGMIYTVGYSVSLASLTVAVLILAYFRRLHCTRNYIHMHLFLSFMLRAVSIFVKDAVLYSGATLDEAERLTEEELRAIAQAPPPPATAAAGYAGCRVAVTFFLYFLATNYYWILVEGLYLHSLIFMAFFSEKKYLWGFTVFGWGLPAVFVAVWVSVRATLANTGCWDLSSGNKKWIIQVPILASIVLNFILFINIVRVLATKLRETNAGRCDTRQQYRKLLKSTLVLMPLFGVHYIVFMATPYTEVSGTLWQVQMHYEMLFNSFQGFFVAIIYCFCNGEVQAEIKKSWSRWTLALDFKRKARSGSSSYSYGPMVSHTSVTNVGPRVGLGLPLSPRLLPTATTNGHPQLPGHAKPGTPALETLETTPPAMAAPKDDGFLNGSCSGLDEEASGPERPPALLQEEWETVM
Procedure: as §1, §2, §3

[4] = Wild-Type + Gs-Peptide, Isoproterenol 1.00E-06 M
[5] = Wild-Type + Gs-Peptide, Isoproterenol 1.00E-07 M
[6] = Wild-Type + Gs-Peptide, Isoproterenol 1.00E-08 M
[7] = Wild-Type + Gs-Peptide, Isoproterenol 1.00E-09 M
[8] = Wild-Type + Gs-Peptide, Isoproterenol 1.00E-10 M
[9] = Wild-Type, Isoproterenol 1.00E-04 M
[10] = Wild-Type, Isoproterenol 1.00E-05 M
[11] = Wild-Type, Isoproterenol 1.00E-06 M
[12] = Wild-Type, Isoproterenol 1.00E-07 M
[13] = Wild-Type, Isoproterenol 1.00E-08 M
[14] = Wild-Type, Isoproterenol 1.00E-09 M
[15] = Wild-Type, Isoproterenol 1.00E-10 M
[16] = Wild-Type, Isoproterenol 5.00E-06 M
[17] = Wild-Type, Isoproterenol 5.00E-07 M
[18] = [Isoproterenol] log(M) -8.30103
[19] = [Isoproterenol] log(M) -9.30103

CC(C)NCC(O)c1ccc(O)c(O)c1 (stereo not drawn) [Isoproterenol, isoproterenol (+)-bitartrate salt]
competition binding curve vs isoproterenol (Extended Data Figure 3L) ([1]; Wild-Type + Gs-Peptide, Isoproterenol 1.00E-05 M): 5.43 and 5.70 and 4.92 and 5.68 | competition binding curve vs isoproterenol (Extended Data Figure 3L), Fit [1, 4]: 26.38 | competition binding curve vs isoproterenol (Extended Data Figure 3L) [1, 4]: 26.11 and 25.98 and 23.88 and 28.47 | competition binding curve vs isoproterenol (Extended Data Figure 3L), Fit [1, 5]: 67.56 | competition binding curve vs isoproterenol (Extended Data Figure 3L) [1, 5]: 67.66 and 67.54 and 65.49 and 69.94 | competition binding curve vs isoproterenol (Extended Data Figure 3L), Fit [1, 6]: 91.53 | competition binding curve vs isoproterenol (Extended Data Figure 3L) [1, 6]: 91.27 and 90.42 and 91.58 and 91.80 | competition binding curve vs isoproterenol (Extended Data Figure 3L), Fit [1, 7]: 98.02 | competition binding curve vs isoproterenol (Extended Data Figure 3L) [1, 7]: 99.15 and 99.41 and 97.66 and 100.39 | competition binding curve vs isoproterenol (Extended Data Figure 3L), Fit [1, 8]: 98.82 | competition binding curve vs isoproterenol (Extended Data Figure 3L) [1, 8]: 99.26 and 100.00 (2×) and 97.78 | competition binding curve vs isoproterenol (Extended Data Figure 3L) ([1]; Wild-Type, Isoproterenol 1.00E-03 M): -0.10 and -0.40 and -0.34 and -0.28 | competition binding curve vs isoproterenol (Extended Data Figure 3L), Fit [1, 9]: 0.67 | competition binding curve vs isoproterenol (Extended Data Figure 3L) [1, 9]: 0.94 and 0.31 and 1.43 and 0.89 | competition binding curve vs isoproterenol (Extended Data Figure 3L), Fit [1, 10]: 5.86 | competition binding curve vs isoproterenol (Extended Data Figure 3L) [1, 10]: 6.24 and 5.08 and 7.57 and 6.30 | competition binding curve vs isoproterenol (Extended Data Figure 3L), Fit [1, 11]: 32.07 | competition binding curve vs isoproterenol (Extended Data Figure 3L) [1, 11]: 32.68 and 27.33 and 35.77 and 31.93 | competition binding curve vs isoproterenol (Extended Data Figure 3L), Fit [1, 12]: 78.70 | competition binding curve vs isoproterenol (Extended Data Figure 3L) [1, 12]: 79.40 and 70.32 and 85.20 and 78.31 | competition binding curve vs isoproterenol (Extended Data Figure 3L), Fit [1, 13]: 97.15 | competition binding curve vs isoproterenol (Extended Data Figure 3L) [1, 13]: 99.13 and 95.83 and 100.15 and 98.37 | competition binding curve vs isoproterenol (Extended Data Figure 3L), Fit [1, 14]: 99.60 | competition binding curve vs isoproterenol (Extended Data Figure 3L) [1, 14]: 96.70 and 99.42 and 102.28 and 99.47 | competition binding curve vs isoproterenol (Extended Data Figure 3L), Fit [1, 15]: 99.85 | competition binding curve vs isoproterenol (Extended Data Figure 3L) [1, 15]: 100.00 and 99.63 and 97.46 and 99.03 | competition binding curve vs isoproterenol (Extended Data Figure 3L), Fit [1, 16]: 10.54 | competition binding curve vs isoproterenol (Extended Data Figure 3L) [1, 16]: 11.05 and 8.39 and 11.22 and 10.22 | competition binding curve vs isoproterenol (Extended Data Figure 3L), Fit [1, 17]: 46.03 | competition binding curve vs isoproterenol (Extended Data Figure 3L) [1, 17]: 47.06 and 40.75 and 51.12 and 46.31 | % Cyanopindolol Bmax, Average ([1]; β2AR ∆ICL3 + 30 µM Gq-peptide, isoproterenol 3.00E-06 M): 34.71% | % Cyanopindolol Bmax, Average ([1]; β2AR ∆ICL3 + 30 µM Gq-peptide, isoproterenol 5.00E-06 M): 27.06% | % Cyanopindolol Bmax, Average ([1]; β2AR ∆ICL3 + 30 µM Gq-peptide, isoproterenol 5.00E-07 M): 70.37% | % Cyanopindolol Bmax, Average ([1]; β2AR ∆ICL3, isoproterenol 3.00E-06 M): 30.73% | % Cyanopindolol Bmax, Average ([1]; β2AR ∆ICL3, isoproterenol 5.00E-06 M): 15.67% | % Cyanopindolol Bmax, Average ([1]; β2AR ∆ICL3, isoproterenol 5.00E-07 M): 65.90% | cAMP (Isoproterenol/Forskolin Maximum), Average ([2]; [Isoproterenol] log(M) -5): 0.73 | cAMP (Isoproterenol/Forskolin Maximum), Average ([2]; [Isoproterenol] log(M) -6): 0.71 | cAMP (Isoproterenol/Forskolin Maximum), Average ([2]; [Isoproterenol] log(M) -7): 0.69 | cAMP (Isoproterenol/Forskolin Maximum), Average ([2]; [Isoproterenol] log(M) -8): 0.49 | cAMP (Isoproterenol/Forskolin Maximum), Average [2, 18]: 0.39 | cAMP (Isoproterenol/Forskolin Maximum), Average ([2]; [Isoproterenol] log(M) -9): 0.0653 | cAMP (Isoproterenol/Forskolin Maximum), Average [2, 19]: 0.0238 | cAMP (Isoproterenol/Forskolin Maximum), Average ([2]; [Isoproterenol] log(M) -10): -0.0474 | cAMP (Isoproterenol/Forskolin Maximum), Average ([2]; [Isoproterenol] log(M) -11): 0.02 | cAMP (Isoproterenol/Forskolin Maximum), Average ([2]; [Isoproterenol] log(M) -12): -0.0165 | cAMP (Isoproterenol/Forskolin Maximum), Average ([3]; [Isoproterenol] log(M) -5): 0.55 | cAMP (Isoproterenol/Forskolin Maximum), Average ([3]; [Isoproterenol] log(M) -6): 0.57 | cAMP (Isoproterenol/Forskolin Maximum), Average ([3]; [Isoproterenol] log(M) -7): 0.59 | cAMP (Isoproterenol/Forskolin Maximum), Average ([3]; [Isoproterenol] log(M) -8): 0.43 | cAMP (Isoproterenol/Forskolin Maximum), Average [3, 18]: 0.44 | cAMP (Isoproterenol/Forskolin Maximum), Average ([3]; [Isoproterenol] log(M) -9): 0.10 | cAMP (Isoproterenol/Forskolin Maximum), Average [3, 19]: 0.00476 | cAMP (Isoproterenol/Forskolin Maximum), Average ([3]; [Isoproterenol] log(M) -10): -0.0216 | cAMP (Isoproterenol/Forskolin Maximum), Average ([3]; [Isoproterenol] log(M) -11): -0.00704 | cAMP (Isoproterenol/Forskolin Maximum), Average ([3]; [Isoproterenol] log(M) -12): -0.08
